Read-outs that look alike come from different tables or passages of the source.
Key:
Format in all cases: biochemical
PI3Kδ = target: T1, PI3Kδ (Homo sapiens, UniProt O00329); assay: TR-FRET enzymatic activity assay, PI3Kδ
T1 construct: made in house

PI3Kγ = target: T2, PI3Kγ (Homo sapiens, UniProt P48736); assay: TR-FRET enzymatic activity assay, PI3Kγ; conditions: read-out: PI3Kγ IC50
T2 construct: made in house
Method in brief: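 Compounds were profiled per isoform in a biochemical kinase reaction, with activity detected by time-resolved fluorescence resonance energy transfer.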

PI3Kβ = target: T3, PI3Kβ (Homo sapiens, UniProt P42338); assay: TR-FRET enzymatic activity assay, PI3Kβ
T3 construct: made in house

[1] = Table 2, TR-FRET, 2x Km ATP, 30 minutes at 25° C.

T1 sequence (O00329 whole entry): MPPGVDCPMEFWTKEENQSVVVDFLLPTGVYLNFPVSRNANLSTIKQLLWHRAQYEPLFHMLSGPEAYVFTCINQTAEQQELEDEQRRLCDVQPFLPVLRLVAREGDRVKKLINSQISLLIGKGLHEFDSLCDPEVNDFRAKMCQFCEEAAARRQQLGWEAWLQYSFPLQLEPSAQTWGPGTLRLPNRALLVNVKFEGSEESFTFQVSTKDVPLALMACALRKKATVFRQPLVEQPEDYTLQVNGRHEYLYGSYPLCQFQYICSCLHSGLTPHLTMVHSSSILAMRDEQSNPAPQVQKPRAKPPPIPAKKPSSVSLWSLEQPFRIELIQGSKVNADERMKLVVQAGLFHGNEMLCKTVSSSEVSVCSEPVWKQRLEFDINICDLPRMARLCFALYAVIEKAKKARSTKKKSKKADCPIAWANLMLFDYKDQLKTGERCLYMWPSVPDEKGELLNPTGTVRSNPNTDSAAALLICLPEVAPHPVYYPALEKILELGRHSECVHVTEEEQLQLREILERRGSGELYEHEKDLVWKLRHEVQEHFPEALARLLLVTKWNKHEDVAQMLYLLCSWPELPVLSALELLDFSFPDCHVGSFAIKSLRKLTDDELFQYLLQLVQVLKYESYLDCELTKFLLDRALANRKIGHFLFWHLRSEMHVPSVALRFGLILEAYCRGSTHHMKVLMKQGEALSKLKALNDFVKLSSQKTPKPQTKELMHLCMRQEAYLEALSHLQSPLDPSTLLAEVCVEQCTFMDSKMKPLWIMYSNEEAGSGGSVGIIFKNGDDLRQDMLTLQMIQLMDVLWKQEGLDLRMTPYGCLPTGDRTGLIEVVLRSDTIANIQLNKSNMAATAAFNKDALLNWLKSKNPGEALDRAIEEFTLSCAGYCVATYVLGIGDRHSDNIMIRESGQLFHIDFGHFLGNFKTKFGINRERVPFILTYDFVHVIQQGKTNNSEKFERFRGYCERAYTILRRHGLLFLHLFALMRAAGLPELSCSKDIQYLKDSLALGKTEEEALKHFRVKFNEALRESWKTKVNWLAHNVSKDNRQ
T1 sequence (P27986 whole entry partner): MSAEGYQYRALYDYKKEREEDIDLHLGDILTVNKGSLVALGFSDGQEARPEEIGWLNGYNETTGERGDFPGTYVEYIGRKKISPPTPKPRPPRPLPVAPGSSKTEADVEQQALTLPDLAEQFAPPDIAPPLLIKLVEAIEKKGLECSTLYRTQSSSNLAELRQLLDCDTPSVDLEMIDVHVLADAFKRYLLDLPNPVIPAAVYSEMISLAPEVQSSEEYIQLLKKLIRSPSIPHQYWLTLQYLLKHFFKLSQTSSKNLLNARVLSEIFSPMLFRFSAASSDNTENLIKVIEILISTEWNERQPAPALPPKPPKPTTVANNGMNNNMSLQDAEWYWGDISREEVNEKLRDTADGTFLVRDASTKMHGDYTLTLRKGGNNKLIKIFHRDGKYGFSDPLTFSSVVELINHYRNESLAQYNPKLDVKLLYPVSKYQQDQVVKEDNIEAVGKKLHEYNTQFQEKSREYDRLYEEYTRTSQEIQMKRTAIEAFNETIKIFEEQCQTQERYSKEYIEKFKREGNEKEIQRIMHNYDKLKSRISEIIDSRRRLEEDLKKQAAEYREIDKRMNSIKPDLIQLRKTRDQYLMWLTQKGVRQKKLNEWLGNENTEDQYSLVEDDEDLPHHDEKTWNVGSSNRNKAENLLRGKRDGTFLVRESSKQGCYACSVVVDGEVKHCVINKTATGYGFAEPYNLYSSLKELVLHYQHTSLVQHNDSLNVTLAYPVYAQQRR
T3 sequence (P42338 whole entry): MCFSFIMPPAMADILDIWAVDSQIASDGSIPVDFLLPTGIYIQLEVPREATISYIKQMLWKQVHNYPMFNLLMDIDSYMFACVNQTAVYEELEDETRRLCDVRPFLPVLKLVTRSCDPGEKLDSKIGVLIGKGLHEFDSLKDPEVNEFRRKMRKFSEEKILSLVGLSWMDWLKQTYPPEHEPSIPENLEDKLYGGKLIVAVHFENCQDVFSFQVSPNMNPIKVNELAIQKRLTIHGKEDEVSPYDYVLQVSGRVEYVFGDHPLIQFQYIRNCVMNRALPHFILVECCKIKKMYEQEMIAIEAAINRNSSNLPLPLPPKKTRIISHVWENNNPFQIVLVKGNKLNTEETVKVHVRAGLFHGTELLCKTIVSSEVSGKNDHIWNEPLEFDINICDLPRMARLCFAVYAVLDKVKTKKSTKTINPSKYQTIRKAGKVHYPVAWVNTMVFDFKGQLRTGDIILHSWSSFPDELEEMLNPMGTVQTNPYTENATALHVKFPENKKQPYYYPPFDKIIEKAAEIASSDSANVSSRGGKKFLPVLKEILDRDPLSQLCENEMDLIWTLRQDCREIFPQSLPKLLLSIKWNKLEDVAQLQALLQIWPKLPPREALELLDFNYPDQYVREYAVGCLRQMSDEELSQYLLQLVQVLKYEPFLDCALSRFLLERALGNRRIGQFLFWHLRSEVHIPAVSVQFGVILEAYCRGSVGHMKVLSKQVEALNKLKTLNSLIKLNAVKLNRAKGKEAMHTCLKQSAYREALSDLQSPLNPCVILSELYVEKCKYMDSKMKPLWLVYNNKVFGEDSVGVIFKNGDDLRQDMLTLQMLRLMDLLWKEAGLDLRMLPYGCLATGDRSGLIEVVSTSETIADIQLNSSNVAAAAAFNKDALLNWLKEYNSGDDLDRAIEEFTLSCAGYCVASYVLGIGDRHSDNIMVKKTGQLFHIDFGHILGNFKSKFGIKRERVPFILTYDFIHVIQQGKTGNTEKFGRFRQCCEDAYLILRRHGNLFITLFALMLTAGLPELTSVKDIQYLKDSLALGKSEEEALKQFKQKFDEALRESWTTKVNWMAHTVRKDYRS
T3 sequence (P27986 whole entry partner): as the sequence (P27986 whole entry partner) above
T2 sequence (P48736 whole entry): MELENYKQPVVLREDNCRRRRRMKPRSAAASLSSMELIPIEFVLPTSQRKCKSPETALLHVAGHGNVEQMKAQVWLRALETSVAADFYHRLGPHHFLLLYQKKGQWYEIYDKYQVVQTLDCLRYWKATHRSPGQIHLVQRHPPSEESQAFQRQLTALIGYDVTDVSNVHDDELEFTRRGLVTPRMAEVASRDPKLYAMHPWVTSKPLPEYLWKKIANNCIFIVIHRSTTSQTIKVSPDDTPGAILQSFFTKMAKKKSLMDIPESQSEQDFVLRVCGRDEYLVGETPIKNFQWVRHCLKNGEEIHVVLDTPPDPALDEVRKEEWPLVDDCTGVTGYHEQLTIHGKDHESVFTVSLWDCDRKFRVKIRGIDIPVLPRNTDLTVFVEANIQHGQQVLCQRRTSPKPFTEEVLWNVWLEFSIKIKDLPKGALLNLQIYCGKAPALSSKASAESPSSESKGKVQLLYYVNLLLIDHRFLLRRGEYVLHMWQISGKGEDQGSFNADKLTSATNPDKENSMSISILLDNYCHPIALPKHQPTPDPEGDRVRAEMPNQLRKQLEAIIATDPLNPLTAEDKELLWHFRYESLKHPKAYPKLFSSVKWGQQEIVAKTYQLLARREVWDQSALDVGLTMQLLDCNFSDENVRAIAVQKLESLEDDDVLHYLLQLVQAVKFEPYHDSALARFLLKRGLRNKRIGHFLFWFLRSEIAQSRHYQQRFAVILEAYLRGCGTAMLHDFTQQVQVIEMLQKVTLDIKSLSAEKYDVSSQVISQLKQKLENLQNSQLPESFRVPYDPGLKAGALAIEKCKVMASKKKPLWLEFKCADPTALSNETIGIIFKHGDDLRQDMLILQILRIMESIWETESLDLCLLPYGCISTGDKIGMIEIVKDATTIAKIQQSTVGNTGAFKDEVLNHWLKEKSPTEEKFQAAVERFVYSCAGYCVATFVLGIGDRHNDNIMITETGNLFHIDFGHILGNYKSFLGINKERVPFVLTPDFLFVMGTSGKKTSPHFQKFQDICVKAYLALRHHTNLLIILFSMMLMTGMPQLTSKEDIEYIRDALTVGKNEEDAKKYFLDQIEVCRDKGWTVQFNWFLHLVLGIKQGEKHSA

IC50 (PI3Kδ; Table 2a, same assay) [nM]	IC50 (PI3Kγ; Table 2a, same assay) [nM]	IC50 (PI3Kβ; Table 2a, same assay) [nM]	IC50 (PI3Kδ; [1]) [nM]	IC50 (PI3Kγ; [1]) [nM]	IC50 (PI3Kβ; [1]) [nM]	IC50 (PI3Kγ) [nM]	Structure (SMILES)
24	3800	42	–	–	–	–	N#Cc1c(N[C@H](c2nc3c(F)cc(F)cc3c(=O)n2-c2cc[nH]n2)C2CC2)nc(N)nc1C(F)F [Compound 195, (S)-2-amino-4-((cyclopropyl(6,8-difluoro-4-oxo-3-(1H-pyrazol-3-yl)-3,4-dihydroquinazolin-2-yl)methyl)amino)-6-(difluoromethyl)pyrimidine-5-carbonitrile]
7	> 10000	93	–	–	–	–	Cc1c[nH]nc1-n1c([C@@H](Nc2nc(N)nc(N)c2C#N)C2CC2)nc2c(C#N)cccc2c1=O [Compound 241, (S)-2-(cyclopropyl((2,6-diamino-5-cyanopyrimidin-4-yl)amino)methyl)-3-(4-methyl-1H-pyrazol-3-yl)-4-oxo-3,4-dihydroquinazoline-8-carbonitrile]
19	6900	19	–	–	–	–	N#Cc1c(N[C@H](c2nc3c(Cl)cccc3c(=O)n2-c2cc[nH]n2)C2CC2)nc(N)nc1C(F)F [Compound 196, (S)-2-amino-4-(((8-chloro-4-oxo-3-(1H-pyrazol-3-yl)-3,4-dihydroquinazolin-2-yl)(cyclopropyl)methyl)amino)-6-(difluoromethyl)pyrimidine-5-carbonitrile]
–	–	–	100	8700	620	–	CC[C@H](Nc1ncnc2scnc12)c1nc2cccc(C#N)c2c(=O)n1-c1cn[nH]c1 [Compound 103, (S)-4-oxo-3-(1H-pyrazol-4-yl)-2-(1-(thiazolo[5,4-d]pyrimidin-7-ylamino)propyl)-3,4-dihydroquinazoline-5-carbonitrile]
–	–	–	39	–	140	> 10000	Nc1nc(N)c(Cl)c(N[C@H](c2nc3c(Cl)cccc3c(=O)n2-c2cc[nH]n2)C2CC2)n1 [Compound 13, (S)-8-chloro-2-(cyclopropyl((2,6-diamino-5-chloropyrimidin-4-yl)amino)methyl)-3-(1H-pyrazol-3-yl)quinazolin-4(3H)-one]
–	–	–	170	7200	360	–	CC[C@H](NC(=O)c1cnn2cccnc12)c1nc2c(Cl)ccc(Cl)c2c(=O)n1-c1cn[nH]c1 [Compound 119, (S)—N-(1-(5,8-dichloro-4-oxo-3-(1H-pyrazol-4-yl)-3,4-dihydroquinazolin-2-yl)propyl)pyrazolo[1,5-a]pyrimidine-3-carboxamide]
130	> 10000	2000	–	–	–	–	N#Cc1c(C(F)F)nc(N)nc1N1CCC[C@H]1c1nc2cccc(Cl)c2c(=O)n1-c1cc[nH]n1 [Compound 189, (S)-2-amino-4-(2-(5-chloro-4-oxo-3-(1H-pyrazol-3-yl)-3,4-dihydroquinazolin-2-yl)pyrrolidin-1-yl)-6-(difluoromethyl)pyrimidine-5-carbonitrile]
1	420	6	–	–	–	–	Cc1n[nH]cc1-n1c([C@H](C)Nc2nc(N)nc(N)c2C#N)nc2c(Cl)ccc(Cl)c2c1=O [Compound 219, (S)-2,4-diamino-6-((1-(5,8-dichloro-3-(3-methyl-1H-pyrazol-4-yl)-4-oxo-3,4-dihydroquinazolin-2-yl)ethyl)amino)pyrimidine-5-carbonitrile]
12	9600	11	–	–	–	–	C[C@H](Nc1nc(N)nc(N)c1C#N)c1nc2cc(F)cc(F)c2c(=O)n1-c1cc[nH]n1 [Compound 235, (S)-2,4-diamino-6-((1-(5,7-difluoro-4-oxo-3-(1H-pyrazol-3-yl)-3,4-dihydroquinazolin-2-yl)ethyl)amino)pyrimidine-5-carbonitrile]
0.7	320	2	–	–	–	–	C[C@H](Nc1nc(N)nc(N)c1C#N)c1nc2cccc(C(F)(F)F)c2c(=O)n1-c1cc[nH]n1 [Compound 205, (S)-2,4-diamino-6-((1-(4-oxo-3-(1H-pyrazol-3-yl)-5-(trifluoromethyl)-3,4-dihydroquinazolin-2-yl)ethyl)amino)pyrimidine-5-carbonitrile]
